This passage reports percent of control binding results from PMC7026418, “The kinase polypharmacology landscape of clinical PARP inhibitors” (Scientific Reports, 2020).

Common to all, as to assay: biochemical
Design in all cases: DiscoveRx KINOMEscan active site-directed competition binding; percent of control kinase bound to immobilised ligand

One test concerns the target EPHA7 (Homo sapiens, UniProt Q15375).
The target in the next test is T1, PIK3CD (Homo sapiens, UniProt O00329).
T1 sequence (O00329 1-1044): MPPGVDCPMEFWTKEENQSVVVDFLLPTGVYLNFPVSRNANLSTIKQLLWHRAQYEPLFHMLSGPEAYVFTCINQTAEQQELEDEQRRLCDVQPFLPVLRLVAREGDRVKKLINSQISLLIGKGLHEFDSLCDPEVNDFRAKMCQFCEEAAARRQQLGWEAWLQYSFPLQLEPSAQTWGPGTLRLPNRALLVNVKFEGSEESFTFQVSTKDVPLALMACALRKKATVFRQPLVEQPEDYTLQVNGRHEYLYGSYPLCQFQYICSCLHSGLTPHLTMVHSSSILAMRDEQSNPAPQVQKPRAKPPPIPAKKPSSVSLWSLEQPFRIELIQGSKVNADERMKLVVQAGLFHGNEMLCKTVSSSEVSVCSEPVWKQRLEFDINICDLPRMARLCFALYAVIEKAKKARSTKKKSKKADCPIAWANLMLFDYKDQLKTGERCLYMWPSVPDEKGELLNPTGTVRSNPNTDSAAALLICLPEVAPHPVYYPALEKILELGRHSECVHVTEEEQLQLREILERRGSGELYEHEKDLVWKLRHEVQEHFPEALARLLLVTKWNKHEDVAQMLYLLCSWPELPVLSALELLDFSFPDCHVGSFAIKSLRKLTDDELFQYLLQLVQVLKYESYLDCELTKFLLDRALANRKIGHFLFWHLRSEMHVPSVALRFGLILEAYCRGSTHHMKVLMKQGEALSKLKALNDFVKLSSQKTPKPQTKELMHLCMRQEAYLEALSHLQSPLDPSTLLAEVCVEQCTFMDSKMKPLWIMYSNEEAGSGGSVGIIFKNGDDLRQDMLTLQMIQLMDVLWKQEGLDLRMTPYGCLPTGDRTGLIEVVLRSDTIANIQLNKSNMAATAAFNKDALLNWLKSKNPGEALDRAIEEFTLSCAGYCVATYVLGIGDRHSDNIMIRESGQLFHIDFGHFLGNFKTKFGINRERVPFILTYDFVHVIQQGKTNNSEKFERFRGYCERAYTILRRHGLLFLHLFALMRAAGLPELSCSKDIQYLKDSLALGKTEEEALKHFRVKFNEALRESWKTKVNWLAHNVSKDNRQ

Another test addresses T2, YSK4 (Homo sapiens, UniProt Q56UN5).
T2 construct: gene MAP3K19
T2 sequence (Q56UN5 1-1328): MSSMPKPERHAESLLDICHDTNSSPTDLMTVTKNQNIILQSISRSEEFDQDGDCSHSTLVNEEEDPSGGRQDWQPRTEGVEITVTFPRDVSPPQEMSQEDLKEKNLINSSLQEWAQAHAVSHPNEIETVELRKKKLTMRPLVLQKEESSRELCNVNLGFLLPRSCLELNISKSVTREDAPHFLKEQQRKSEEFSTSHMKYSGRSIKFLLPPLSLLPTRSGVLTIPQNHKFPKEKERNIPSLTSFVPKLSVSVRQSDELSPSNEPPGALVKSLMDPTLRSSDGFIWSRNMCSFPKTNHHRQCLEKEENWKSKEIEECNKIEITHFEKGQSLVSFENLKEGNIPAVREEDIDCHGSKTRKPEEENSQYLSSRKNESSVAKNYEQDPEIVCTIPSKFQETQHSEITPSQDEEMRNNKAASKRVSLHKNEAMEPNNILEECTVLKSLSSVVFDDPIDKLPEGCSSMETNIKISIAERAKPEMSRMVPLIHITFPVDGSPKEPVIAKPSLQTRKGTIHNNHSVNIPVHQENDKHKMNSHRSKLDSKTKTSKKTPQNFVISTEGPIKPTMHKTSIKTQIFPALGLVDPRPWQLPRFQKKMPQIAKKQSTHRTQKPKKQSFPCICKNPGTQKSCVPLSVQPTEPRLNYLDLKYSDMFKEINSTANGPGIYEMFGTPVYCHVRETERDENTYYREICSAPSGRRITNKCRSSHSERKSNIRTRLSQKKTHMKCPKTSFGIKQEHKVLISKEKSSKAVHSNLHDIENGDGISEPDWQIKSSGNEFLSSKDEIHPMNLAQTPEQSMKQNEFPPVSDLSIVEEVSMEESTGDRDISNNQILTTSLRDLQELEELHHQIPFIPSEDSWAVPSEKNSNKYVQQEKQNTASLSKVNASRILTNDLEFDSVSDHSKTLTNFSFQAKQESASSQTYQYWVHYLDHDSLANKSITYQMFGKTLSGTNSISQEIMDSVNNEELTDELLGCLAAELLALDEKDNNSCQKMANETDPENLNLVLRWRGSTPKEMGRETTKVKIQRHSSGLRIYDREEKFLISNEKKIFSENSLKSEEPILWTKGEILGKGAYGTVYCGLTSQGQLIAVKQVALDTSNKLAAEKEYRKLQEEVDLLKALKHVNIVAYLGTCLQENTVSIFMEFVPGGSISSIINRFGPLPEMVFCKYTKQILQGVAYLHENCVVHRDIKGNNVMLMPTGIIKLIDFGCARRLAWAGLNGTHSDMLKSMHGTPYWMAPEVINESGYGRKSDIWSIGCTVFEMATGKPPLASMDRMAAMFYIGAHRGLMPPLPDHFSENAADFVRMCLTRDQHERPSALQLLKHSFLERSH

The target of a further test is T3, p38-delta (Homo sapiens, UniProt O15264).
T3 construct: gene MAPK13
T3 sequence (O15264 1-365): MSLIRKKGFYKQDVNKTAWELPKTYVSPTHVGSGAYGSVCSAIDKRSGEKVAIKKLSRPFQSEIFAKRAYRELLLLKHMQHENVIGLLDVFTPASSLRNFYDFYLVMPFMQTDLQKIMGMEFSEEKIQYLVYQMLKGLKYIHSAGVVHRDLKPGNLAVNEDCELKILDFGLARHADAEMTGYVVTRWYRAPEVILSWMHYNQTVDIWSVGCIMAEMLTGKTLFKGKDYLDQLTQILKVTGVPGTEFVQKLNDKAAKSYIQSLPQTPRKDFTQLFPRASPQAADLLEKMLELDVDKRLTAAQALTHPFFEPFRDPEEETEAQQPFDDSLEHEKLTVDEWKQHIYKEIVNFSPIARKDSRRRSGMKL

Where [1] appears, read: read-out: Niraparib (MK-4827) / %Ctrl @ 10000nM.
Where [2] appears, read: read-out: Olaparib / %Ctrl @ 10000nM.
Where [3] appears, read: read-out: Rucaparib / %Ctrl @ 10000nM, binding competition, % of control.
[4] abbreviates: read-out: Talazoparib (BMN 673) / %Ctrl @ 10000nM.

Like-named read-outs stand apart in the source and are kept apart here.

Chain of EPHA7 (Q15375 whole entry): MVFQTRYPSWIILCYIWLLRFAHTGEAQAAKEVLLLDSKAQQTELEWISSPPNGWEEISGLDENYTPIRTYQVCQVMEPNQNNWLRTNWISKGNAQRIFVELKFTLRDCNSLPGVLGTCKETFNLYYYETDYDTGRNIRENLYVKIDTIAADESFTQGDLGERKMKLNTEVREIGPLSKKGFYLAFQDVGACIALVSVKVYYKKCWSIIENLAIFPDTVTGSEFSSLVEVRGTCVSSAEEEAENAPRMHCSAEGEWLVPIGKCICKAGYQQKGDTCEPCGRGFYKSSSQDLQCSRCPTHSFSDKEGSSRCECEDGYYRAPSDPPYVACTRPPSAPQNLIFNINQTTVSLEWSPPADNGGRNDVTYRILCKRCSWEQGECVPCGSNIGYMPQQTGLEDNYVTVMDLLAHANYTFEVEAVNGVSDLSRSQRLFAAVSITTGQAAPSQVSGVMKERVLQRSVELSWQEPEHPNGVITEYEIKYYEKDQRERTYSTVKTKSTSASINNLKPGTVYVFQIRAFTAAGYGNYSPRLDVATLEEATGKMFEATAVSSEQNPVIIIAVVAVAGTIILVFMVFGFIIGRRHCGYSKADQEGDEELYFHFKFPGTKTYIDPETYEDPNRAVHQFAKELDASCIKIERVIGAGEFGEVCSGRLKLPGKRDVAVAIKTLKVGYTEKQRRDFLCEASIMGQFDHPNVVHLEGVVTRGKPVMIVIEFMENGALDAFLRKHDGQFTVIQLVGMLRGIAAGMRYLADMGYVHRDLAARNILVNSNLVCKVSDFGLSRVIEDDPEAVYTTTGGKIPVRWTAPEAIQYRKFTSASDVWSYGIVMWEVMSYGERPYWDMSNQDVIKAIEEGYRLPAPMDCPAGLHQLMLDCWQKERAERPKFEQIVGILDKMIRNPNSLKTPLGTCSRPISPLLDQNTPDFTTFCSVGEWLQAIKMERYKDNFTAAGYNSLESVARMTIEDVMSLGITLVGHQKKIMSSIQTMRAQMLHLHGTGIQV

As for `NC(=O)c1cccc2cn(-c3ccc([C@@H]4CCCNC4)cc3)nc12` [Niraparib], the percent of control binding at 10 µM on EPHA7 (setting [1]) is 89%; at PIK3CD (setting [1]), 73%; on YSK4 (setting [1]), 63%; at p38-delta (setting [1]), 82%.

For `O=C(c1cc(Cc2n[nH]c(=O)c3ccccc23)ccc1F)N1CCN(C(=O)C2CC2)CC1` [Olaparib], the percent of control binding at 10 µM at EPHA7 (setting [2]) stood at 100%; at PIK3CD (setting [2]) it was 75%; on YSK4 (setting [2]), 65%; at p38-delta (setting [2]) it was 84%.

`CNCc1ccc(-c2[nH]c3cc(F)cc4c3c2CCNC4=O)cc1` [Rucaparib]: the percent of control binding at 10 µM on EPHA7 (setting [3]) is 100%; on PIK3CD (setting [3]), 64%; on YSK4 (setting [3]) it was 58%; at p38-delta (setting [3]) it was 100%.

For `Cn1ncnc1[C@H]1c2n[nH]c(=O)c3cc(F)cc(c23)N[C@@H]1c1ccc(F)cc1` [Talazoparib], the percent of control binding at 10 µM at EPHA7 (setting [4]) stood at 96%; on PIK3CD (setting [4]), 82%; on YSK4 (setting [4]), 89%; at p38-delta (setting [4]), 98%.
